For this assay, the target named is T1, Phospholipase A2, membrane associated (Homo sapiens, UniProt P14555).
T1 sequence (P14555 whole entry): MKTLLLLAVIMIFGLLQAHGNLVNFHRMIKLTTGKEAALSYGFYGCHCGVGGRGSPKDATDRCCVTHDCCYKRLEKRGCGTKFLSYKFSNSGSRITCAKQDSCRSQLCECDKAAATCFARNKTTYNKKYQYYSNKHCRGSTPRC
Put plainly: Inhibitory Activity Assay. To be noted: pH 8. The protocol:
The reaction mixture contained 160 uL of reaction buffer [50 mM Tris-HCl (pH 8.0), 100 mM NaCl, 5 ug/mL bovine serum albumin (BSA), 5 uM CaCl2, and 10 mM anilinonaphthalene sulfonate (ANS)], 20 uL of substrate stock solution (2 mM DMPC), and 2 mM of sodium deoxycholate in water. After 5 min of sonication, 10 uL of inhibitor stock solution (in DMSO) were incubated at 28 uC for 10 min. The reactions were started by adding 10 uL of hnps-PLA2 stock solution (0.1 mg/mL) and monitored by excitation at 377 nm and emission at 470 nm.
By IC50 is commonly meant the concentration at which inhibition is half-maximal. High values mean lower potency, low ones higher potency. The molecule `O=C(N[C@@H](Cc1ccc([NH+]([O-])O)cc1)C(=O)O)OCC1c2ccccc2-c2ccccc21` (some centres not stated) [DCSD 001360 (3)] displayed an IC50 of 21.4 µM.

`O=C(CCc1ccccc1)CC[C@H](NC(=O)OCC1c2ccccc2-c2ccccc21)C(=O)O` [DCSD 001850 (5)] returned an IC50 of 34.5 µM.

`O=C(N[C@@H](Cc1ccc(O)c([NH+]([O-])O)c1)C(=O)O)OCC1c2ccccc2-c2ccccc21` (some centres not stated) [DCSD 002267 (4)] returned an IC50 of 41 µM.

The molecule `O=C(N[C@H](Cc1ccc2ccccc2c1)C(=O)O)OCC1c2ccccc2-c2ccccc21` [DCSD 002847 (2)] yielded a 50% inhibitory concentration (IC50) of 8.6 µM.

Take `O=C(N[C@H](Cc1ccccc1)C(=O)O)OCC1c2ccccc2-c2ccccc21` [DCSD 002855 (1)]: the IC50 is 47.5 µM.

`O=C(COc1ccc2ccccc2c1)N/N=C/c1cccc(OC(=O)c2cc([NH+]([O-])O)cc([NH+]([O-])O)c2)c1` (configuration not stated) [SPECS AG-690/40108589 (7)]: the half-maximal inhibitory concentration (IC50) was 12.2 µM.

Molecule `O=C(COc1ccc(/C=N/NC(=O)c2ccccc2[NH+]([O-])O)cc1)Nc1cccc([NH+]([O-])O)c1` (configuration not stated) [SPECS AG-690/40696769 (6)] had an IC50 of 9 µM.

(Values after BindingDB's records for doi:10.1111/cbdd.12307 (Peking University, 2014).)
